Assay results: patent publication US8633224B2, “Hemiasterlin derivatives and uses thereof in the treatment of cancer” (Eisai Co., Ltd., priority 2002, dated 2014)

Test system: human cancer cells
Experiment: in vitro and in vivo screening panel (growth inhibition, MDR, cytotoxicity, mouse serum stability, mitotic block reversibility, tumor xenograft)
Conditions: properties (i)-(vii) of b364/b365
Protocol: In certain embodiments, compounds of the invention were tested for in vitro and in vivo activity. Screening methods included standard in vitro cell growth inhibition assays using a panel of human cancer cell lines, a U937 (ATCC accession number CRL 1593) mitotic block reversibility assay, mouse serum stability assay, MDR assay, and cytotoxicity assay. In certain other embodiments, compounds of the invention were evaluated in tumor xenograft in vivo growth inhibition assays.
Cultured human cancer cells (including breast, prostate, colon, lung, leukemia, lymphoma and other) were plated in 96-well plates and grown in the continuous presence of test compounds for 72 or 96 hours. The human cell lines used in this cell growth inhibition assay, include, but are not limited to, the following solid tumor cell lines and non-solid tumor cell lines: DLD-1 colon cancer cells (ATCC accession number CCL-221), DU 145 prostate cancer cells (ATCC accession number HTB-81), H460 non small cell lung cancer, HCT-15 colon cancer cells (ATCC accession number CCL-225), HEL erythroleukemia cells, HL-60 promyelocytic leukemia cells (ATCC accession number CCL-240), K562 leukemia (ATCC accession number CCL-243), LOX melanoma, MDA-MB-435 breast cancer cells, U937 lymphoma cells (ATCC accession number CRL 1593), PANC-1 pancreatic cancer (ATCC accession number CRL-1469), HCC-2998 colon cancer (NCI-Frederick Cancer DCTD Tumor/Cell Line Repository), HCT 116 colon cancer (ATCC accession number CCL-247), HT-29 colon cancer (ATCC accession number HTB-38), LoVo colon cancer (ATCC accession number CCL-229), SW-480 colon cancer (ATCC accession number CCL-228), SW-620 colon cancer (ATCC accession number CCL-227) and COLO-205 colon cancer (ATCC accession number CCL-222). For monolayer cultures, growth was assessed using modifications (Amin et al, Cancer Res., 47: 6040-6045, 1987) of a methylene blue-based microculture assay (Finlay et al, Anal. Biochem., 139: 272-277, 1984). Absorbances at 620 and 405 nm were measured on a Titertek Multiscan MCC/340 plate reader and absorbances at 405 nm were subtracted from absorbances at 620 nm. For suspension cultures, growth was assessed using a 3-(4,5-dimethylthiazol-2-yl)-2,5-diphenyl tetrazolium bromide-based assay (Mosmann et al, J. Immunol. Methods, 65: 55-63, 1983) modified as follows. After 4 days of incubation with test compounds, sterile-filtered 3-(4,5-dimethylthiazol-2-yl)-2,5-diphenyl tetrazolium bromide was added to each well (final concentration, 0.5 mg/ml), and plates were incubated at 37° C. for 4 h. Acid-isopropanol (0.1 N HCl in isopropanol, […]) was then added to each well, and the resultant formazan crystals were dis-solved by gentle mixing. Absorbances at 540 nm were measured on a Titertek Multiscan MCC/340 plate reader.
Briefly, U937 (ATCC accession number […]) were exposed to various concentration of compounds for 12 hours. The compounds were washed away and the cells were allowed to recover for an additional 10 hours. The cells were collected by centrifugation and fixed overnight in 70% ethanol. The cells were washed in PBS, incubated with RNase A and stained with propidium iodide. Single channel flow cytometry was performed on a Becton Dickinson FACScan; the collection and analysis of data were performed using Becton Dickinson CELLQuest software. Doublet events were eliminated from analyses by proper gating on FL2-W/FL2-A primary plots before histogram analysis of DNA content (measured as FL2-A).
This is a modification of the standard cell growth inhibition assays described above. Two cultured human cancer cell lines were used: human uterine sarcoma MDR negative MES-SA cells (ATCC accession number CRL-1976) and human uterine sarcoma MDR-positive MES-SA/Dx5 cells (ATCC accession number CRL-1977). Cells were plated in a 96-well microtiter plates at a density of 7500 cells/well. The cells were incubated in the presence or absence of test compounds for 96 hours.

| SMILES | desired properties (growth inhibition IC50, resistance ratio, cytotoxicity in non-dividing normal cells, mouse serum stability, mitotic block reversibility, tumor regression, tumor growth inhibition) |
| --- | --- |
| C/C(=C\[C@H](C(C)C)N(C)C(=O)[C@@H](NC(=O)[C@H]1CCCCN1C(C)C(C)C)C(C)(C)C)C(=O)O (single isomer, unassigned) [ER-808662] | exhibiting desired properties |
| CCC(C)N1CCCCC1C(=O)NC(C(=O)N(C)[C@H](/C=C(\C)C(=O)O)C(C)C)C(C)(C)C (stereo in doubt) [ER-808368] | exhibiting desired properties |
| CCC(C)N1CCCCC1C(=O)NC(C(=O)N(C)[C@H](/C=C(\C)C(=O)O)C(C)C)C(C)C (stereo in doubt) [ER-808824] | exhibiting desired properties |
| CN[C@H](C(=O)N[C@H](C(=O)N(C)[C@H](/C=C(\C)C(=O)N1CCC[C@H]1C(=O)OC)C(C)C)C(C)(C)C)C(C)(C)c1ccccc1 [ER-805736] | exhibiting desired properties |
| CN[C@H](C(=O)N[C@H](C(=O)N(C)[C@H](/C=C(\C)C(=O)O)C(C)C)C(C)(C)C)C(C)(C)c1ccc(OCc2ccccc2)cc1 [ER-805913] | exhibiting desired properties |
| CN[C@H](C(=O)N[C@H](C(=O)N(C)[C@H](CN(C)CC(=O)N1CCC[C@H]1C(=O)OC)C(C)C)C(C)(C)C)C(C)(C)c1ccccc1 [ER-806925] | exhibiting desired properties |
| C/C(=C\[C@H](C(C)C)N(C)C(=O)[C@@H](NC(=O)[C@@H]1CCCCN1C)C(C)(C)C)C(=O)O [ER-807102] | exhibiting desired properties |
| CN[C@H](C(=O)N[C@H](C(=O)N(C)[C@H](CN1CCC[C@H]1C(=O)N1CCC[C@H]1C(N)=O)C(C)C)C(C)(C)C)C(C)(C)c1ccccc1 [ER-807328] | exhibiting desired properties |
| CCC(CC)(NC)C(=O)N[C@H](C(=O)N(C)[C@H](/C=C(\C)C(=O)O)C(C)C)C(C)(C)C [ER-807850] | exhibiting desired properties |
| CC(C)OC(=O)[C@@H]1CCCN1C(=O)[C@@H]1CCCN1C[C@H](C(C)C)N(C)C(=O)[C@@H](NC(=O)[C@H]1CCCCN1C)C(C)(C)C [ER-807904] | exhibiting desired properties |
| C/C(=C\[C@H](C(C)C)N(C)C(=O)[C@@H](NC(=O)[C@H]1CCCCN1C(C)C)C(C)(C)C)C(=O)O [ER-807974] | exhibiting desired properties |

Test system: human lung carcinoma, human colon carcinoma and human melanoma
Experiment: not given
Conditions: cited from earlier work

| SMILES | antitumor activity against several cell lines |
| --- | --- |
| CN[C@H](C(=O)N[C@H](C(=O)N(C)[C@H](/C=C(\C)C(=O)O)C(C)C)C(C)(C)C)C(C)(C)c1cn(C)c2ccccc12 [Hemiasterlin] | exhibited antitumor activity |
